In the supplement of paper PMC11208160:

Assay: recombinant UMI read abundance after kanamycin selection (control-corrected) (log10(CPM+1)); higher = more efficient recombination; extreme values may be limits of the assay; sequences stand for … in AGTGCAGAGAAAATCGGCCAGTTTTCTCTGCCTGCAGTCCGCATGCCGTGGGACCCCTTGGGTTCTAACCTGTTGCCTAGATTTATGCAGCGGACTGCCTTTCTCCCAAAGTGATAAACCGG…AGGTTGGTTTCACT; site = the 11-nt donor
In short: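 Sequenced counts of recombinant UMIs were turned into CPM, averaged across replicates and scaled with control-derived factors. The reported figure is log10(CPM+1). Those UMIs, each 12 nt long, tagged donor and donor-binding-loop pairs on a plasmid with a promoterless kanamycin gene, screened as a pool in Escherichia coli with IPTG (0.07 mM) plus kanamycin or without selection.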
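Also: IS621 bridge recombinase in Escherichia coli cells against a fixed T5 target plasmid.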

Sequence | recombinant UMI read abundance (log10)
CTCCTAACATGGACCGGTTTTCCCGGTAATCCGTATTTGGA (site CTGCTAACTTC) | 0.0178
CTCCTAACATGGACCGGTTTTCCCGGTAATCCGTATTTGGA (site CTTCTAACTTC) | 0.0149
CTCCTTACATGGACCGGTTTTCCCGGTAATCCGTATTTGAG (site CTCCATACTCT) | 0
CTCCTTACATGGACCGGTTTTCCCGGTAATCCGTATTTGAG (site CTCCCTACTCT) | 0.00731
CTCCTTACATGGACCGGTTTTCCCGGTAATCCGTATTTGAG (site CTCCGTACTCT) | 0
CTCCTTACATGGACCGGTTTTCCCGGTAATCCGTATTTGAG (site CTCCTTACTCT) | 0.201
CTCGACACATGGACCGGTTTTCCCGGTAATCCGTATTTGGA (site CTCGACACTTC) | 0.942
CTCGCTACATGGACCGGTTTTCCCGGTAATCCGTATTTGAG (site CTCACTACTCT) | 0.085
CTCGCTACATGGACCGGTTTTCCCGGTAATCCGTATTTGAG (site CTCCCTACTCT) | 0.00726
CTCGCTACATGGACCGGTTTTCCCGGTAATCCGTATTTGAG (site CTCGCTACTCT) | 1.03
CTCGCTACATGGACCGGTTTTCCCGGTAATCCGTATTTGAG (site CTCTCTACTCT) | 0.139
CTCGGCCCATGGACCGGTTTTCCCGGTAATCCGTATTTGTT (site CACGGCCCTAA) | 0.0311
CTCGGCCCATGGACCGGTTTTCCCGGTAATCCGTATTTGTT (site CCCGGCCCTAA) | 0.0244
CTCGGCCCATGGACCGGTTTTCCCGGTAATCCGTATTTGTT (site CGCGGCCCTAA) | 0.0316
CTCGGCCCATGGACCGGTTTTCCCGGTAATCCGTATTTGTT (site CTCGGCCCTAA) | 0.0107
CTCGGCGCATGGACCGGTTTTCCCGGTAATCCGTATTTGCC (site CTCGGCGCTGG) | 2.12
CTCGGGCCATGGACCGGTTTTCCCGGTAATCCGTATTTGTG (site CTCGGGCCTCA) | 0
CTCGTATCATGGACCGGTTTTCCCGGTAATCCGTATTTGTC (site CTAGTATCTGT) | 0
CTCGTATCATGGACCGGTTTTCCCGGTAATCCGTATTTGTC (site CTCGTATCTGA) | 2.69
CTCGTCCCATGGACCGGTTTTCCCGGTAATCCGTATTTGTA (site CTCGTCCCTTA) | 1.66
CTCGTTACATGGACCGGTTTTCCCGGTAATCCGTATTTGTG (site CTCGTTACTCA) | 0.783
CTCTACACATGGACCGGTTTTCCCGGTAATCCGTATTTGCG (site CTCTACACTAG) | 0.613
CTCTACACATGGACCGGTTTTCCCGGTAATCCGTATTTGCG (site CTCTACACTCG) | 1.73
CTCTACACATGGACCGGTTTTCCCGGTAATCCGTATTTGCG (site CTCTACACTGG) | 0.00583
CTCTACACATGGACCGGTTTTCCCGGTAATCCGTATTTGCG (site CTCTACACTTG) | 0.829

Sequence | recombinant UMI read abundance (log10)
CTCTACGCATGGACCGGTTTTCCCGGTAATCCGTATTTGCT (site CTCTACACTAG) | 0.475
CTCTACGCATGGACCGGTTTTCCCGGTAATCCGTATTTGCT (site CTCTACCCTAG) | 0
CTCTACGCATGGACCGGTTTTCCCGGTAATCCGTATTTGCT (site CTCTACGCTAG) | 0.572
CTCTACGCATGGACCGGTTTTCCCGGTAATCCGTATTTGCT (site CTCTACTCTAG) | 2.89
CTCTCCTCATGGACCGGTTTTCCCGGTAATCCGTATTTGCC (site CACTCCTCTGG) | 2.68
CTCTCCTCATGGACCGGTTTTCCCGGTAATCCGTATTTGCC (site CCCTCCTCTGG) | 2.6
CTCTCCTCATGGACCGGTTTTCCCGGTAATCCGTATTTGCC (site CGCTCCTCTGG) | 2.57
CTCTCCTCATGGACCGGTTTTCCCGGTAATCCGTATTTGCC (site CTCTCCTCTGG) | 2.63
CTCTGGACATGGACCGGTTTTCCCGGTAATCCGTATTTGGA (site TGAGTCTCTCA) | 0
CTCTTGGCATGGACCGGTTTTCCCGGTAATCCGTATTTGGA (site CACTTGGCTTC) | 0.273
CTCTTGGCATGGACCGGTTTTCCCGGTAATCCGTATTTGGA (site CCCTTGGCTTC) | 0.169
CTCTTGGCATGGACCGGTTTTCCCGGTAATCCGTATTTGGA (site CGCTTGGCTTC) | 0.00297
CTCTTGGCATGGACCGGTTTTCCCGGTAATCCGTATTTGGA (site CTCTTGGCTTC) | 0.529
CTGAATCCATGGACCGGTTTTCCCGGTAATCCGTATTTGTG (site CGGAATCCTAA) | 0.00601
CTGAATCCATGGACCGGTTTTCCCGGTAATCCGTATTTGTG (site CTGAATCCTCA) | 0.684
CTGACCTCATGGACCGGTTTTCCCGGTAATCCGTATTTGTA (site CTGACCTCTTA) | 2.34
CTGAGATCATGGACCGGTTTTCCCGGTAATCCGTATTTGTA (site CTGAGATCTTA) | 2.8
CTGAGGCCATGGACCGGTTTTCCCGGTAATCCGTATTTGGT (site CTGAGGCCTAC) | 0
CTGATACCATGGACCGGTTTTCCCGGTAATCCGTATTTGCT (site CTGATACCTAG) | 0.00587
CTGATACCATGGACCGGTTTTCCCGGTAATCCGTATTTGCT (site CTGCTACCTAG) | 0
CTGATACCATGGACCGGTTTTCCCGGTAATCCGTATTTGCT (site CTGGTACCTAG) | 0
CTGATACCATGGACCGGTTTTCCCGGTAATCCGTATTTGCT (site CTGTTACCTAG) | 0
CTGCACACATGGACCGGTTTTCCCGGTAATCCGTATTTGAT (site CTGCACACTAT) | 2.25
CTGCCACCATGGACCGGTTTTCCCGGTAATCCGTATTTGCT (site CTGCAACCTAG) | 0
CTGCCACCATGGACCGGTTTTCCCGGTAATCCGTATTTGCT (site CTGCCACCTAG) | 0.00511

Sequence | recombinant UMI read abundance (log10)
CTGCCACCATGGACCGGTTTTCCCGGTAATCCGTATTTGCT (site CTGCGACCTAG) | 0
CTGCCACCATGGACCGGTTTTCCCGGTAATCCGTATTTGCT (site CTGCTACCTAG) | 0
CTGCCCACATGGACCGGTTTTCCCGGTAATCCGTATTTGCG (site CTGCCCACTCG) | 1.76
CTGCGAGCATGGACCGGTTTTCCCGGTAATCCGTATTTGCA (site CTGCGAGCTTG) | 0.942
CTGCGTTCATGGACCGGTTTTCCCGGTAATCCGTATTTGGA (site CTGCGTTCTTC) | 1.44
CTGCTAACATGGACCGGTTTTCCCGGTAATCCGTATTTGCC (site CTGCTAACTGG) | 2.21
CTGCTACCATGGACCGGTTTTCCCGGTAATCCGTATTTGAT (site CTGCTACCTAA) | 0.0178
CTGCTACCATGGACCGGTTTTCCCGGTAATCCGTATTTGAT (site CTGCTACCTAC) | 0.00934
CTGCTACCATGGACCGGTTTTCCCGGTAATCCGTATTTGAT (site CTGCTACCTAG) | 0.00723
CTGCTACCATGGACCGGTTTTCCCGGTAATCCGTATTTGAT (site CTGCTACCTAT) | 0.00649
CTGCTACCATGGACCGGTTTTCCCGGTAATCCGTATTTGCC (site CTGCTACCTAG) | 0
CTGCTACCATGGACCGGTTTTCCCGGTAATCCGTATTTGCC (site CTGCTACCTCG) | 0.00838
CTGCTACCATGGACCGGTTTTCCCGGTAATCCGTATTTGCC (site CTGCTACCTGG) | 0
CTGCTACCATGGACCGGTTTTCCCGGTAATCCGTATTTGCC (site CTGCTACCTTG) | 0
CTGCTACCATGGACCGGTTTTCCCGGTAATCCGTATTTGCT (site ATGCTACCTAG) | 0.00358
CTGCTACCATGGACCGGTTTTCCCGGTAATCCGTATTTGCT (site CAGCTACCTAG) | 0
CTGCTACCATGGACCGGTTTTCCCGGTAATCCGTATTTGCT (site CCGCTACCTAG) | 0
CTGCTACCATGGACCGGTTTTCCCGGTAATCCGTATTTGCT (site CGGCTACCTAG) | 0
CTGCTACCATGGACCGGTTTTCCCGGTAATCCGTATTTGCT (site CTACTACCTAG) | 0
CTGCTACCATGGACCGGTTTTCCCGGTAATCCGTATTTGCT (site CTCCTACCTAG) | 0
CTGCTACCATGGACCGGTTTTCCCGGTAATCCGTATTTGCT (site CTGATACCTAG) | 0
CTGCTACCATGGACCGGTTTTCCCGGTAATCCGTATTTGCT (site CTGCAACCTAG) | 0
CTGCTACCATGGACCGGTTTTCCCGGTAATCCGTATTTGCT (site CTGCCACCTAG) | 0.00361
CTGCTACCATGGACCGGTTTTCCCGGTAATCCGTATTTGCT (site CTGCGACCTAG) | 0
CTGCTACCATGGACCGGTTTTCCCGGTAATCCGTATTTGCT (site CTGCTAACTAG) | 0.00893
